# Laboratory results taken from ChEMBL document CHEMBL5260832, “Hepatoprotective natural triterpenoids” (Eur J Med Chem, 2018).
# pIC50: −log10 of the molar value.
# Legend:
# [1] = tested on: HepG2; experiment: Hepatoprotective activity against H2O2-induced cell death in human HepG2 cells assessed as reduction in ALT level at 20 uM preincubated for 1 hr followed by H2O2-stimulation and measured after 24 hrs; format: functional
# [2] = tested on: HepG2; experiment: Hepatoprotective activity against H2O2-induced cell death in human HepG2 cells assessed as reduction in AST level at 20 uM preincubated for 1 hr followed by H2O2-stimulation and measured after 24 hrs; format: functional
# [3] = tested on: Hepatocyte; experiment: Hepatoprotective activity against D-GaIN/TNFalpha induced cell death in mouse hepatocytes assessed as reduction in TNF alpha level; format: functional, cell-based
# [4] = tested on: Hepatocyte; experiment: Hepatoprotective activity against D-GaIN induced liver injury in rat hepatocyte assessed as decrease in LDH level at 30 to 120 uM; format: functional; details: dose 30-120 µM
# [5] = tested on: Hepatocyte; experiment: Hepatoprotective activity against D-GaIN induced liver injury in rat hepatocyte assessed as decrease in ALT level at 30 to 120 uM; format: functional; details: dose 30-120 µM
# [6] = Hepatotoxicity in D-GaIN induced in Wistar rat model hepatocyte assessed as reduction in PLA2 level; format: toxicity, cell-based
# [7] = Hepatotoxicity in rat hepatocyte assessed as change in GSH level at 30 microg/mL relative to control; format: toxicity, cell-based; details: hepatocytes, at 30 µg/mL
# [8] = tested on: L02; experiment: Protection against D-GalN-induced toxicity in L02 cells […] assessed as reduction in cell growth relative to control; format: functional, Homo sapiens; parameters: scale not given: the % may be the effect or the level left
# [9] = tested on: Hepatocyte; experiment: Hepatoprotective activity against D-GaIN/TNFalpha -induced cell death in mouse hepatocyte assessed as inhibition of cell death; format: functional, cell-based; parameters: Activity: concentration or dose not given beside the values
# [10] = Hepatoprotective activity against D-Galactosamine-induced toxicity in rat WB-F344 cell assessed as cell damage at 10 uM by MTT colorimetric assay relative to control; format: functional
# [11] = tested on: Hepatocyte; experiment: Hepatoprotective activity against D-GaIN-induced toxicity in mouse hepatocyte relative to control; format: functional, cell-based
# [12] = Hepatotoxicity in D-GaIN induced Wistar rat assessed as change in induction of TAT level for 10 days relative to control; format: toxicity; parameters: concentration or dose not given beside the values; details: in vivo, 240 h, time 10 day
# [13] = tested on: Mus musculus; experiment: Hepatoprotective activity against D-GaIN/CCl4 induced liver injury mouse model assessed as reduction in GPT level at 30 microg/kg, iv relative to control; format: functional; parameters: scale not given: the % may be the effect or the level left; details: dose 30 µg/kg
# [14] = organism: Mus musculus; experiment: Hepatoprotective activity against D-GaIN/LPS induced liver injury mouse model assessed as increase in sAST relative to control; format: functional
# [15] = organism: Mus musculus; experiment: Hepatoprotective activity against D-GaIN/LPS induced liver injury mouse model assessed as increase in sALT relative to control; format: functional
# [16] = tested on: Hepatocyte; experiment: Hepatoprotective activity against D-GaIN/TNFalpha-induced cell death in mouse hepatocyte at 100 uM; format: functional, cell-based
structure (smiles),measurement,setting,value
C=C(C)[C@@H]1C[C@H](O)C2=C(C(=O)C[C@]3(C)[C@@H]([C@H](C)CCC(=O)O)CC[C@@]23C)[C@@]1(C)CCC(=O)O,Activity,[1],16.06 U/L
same,Activity,[2],19.09 U/L
C=C(C)[C@@H](O)CC[C@@H](CO)[C@H]1CC[C@@]2(C)[C@@H]3CC[C@H]4[C@](C)(C(=O)OC)[C@@H](O)C[C@H](O)[C@@]45C[C@@]35CC[C@]12C [METHYL QUADRANGULARATE],pIC50,[3],3.47
CC(=O)O[C@@H]1C[C@](C)(C(=O)O)C[C@H]2C3=CC(=O)[C@@H]4[C@@]5(C)CC[C@H](O[C@@H]6O[C@H](C(=O)O)[C@@H](O)[C@H](O)[C@H]6O[C@@H]6O[C@H](C(=O)O)[C@@H](O)[C@H](O)[C@H]6O)C(C)(C)[C@@H]5CC[C@@]4(C)[C@]3(C)CC[C@@]12C,Activity,[4],242.8 U/L
same,Activity,[5],16.5 U/L
same,pIC50,[6],4.57
C[C@H]1O[C@@H](O[C@H]2CC[C@@]3(C)[C@@H](CC[C@]4(C)[C@@H]3[C@H](O)C[C@@H]3C5=CC(C)(C)CC[C@]5(CO)[C@@H](O)C[C@]34C)[C@]2(C)CO)[C@H](O)[C@@H](O[C@@H]2O[C@H](CO)[C@@H](O)[C@H](O)[C@H]2O)[C@H]1O,Activity,[7],64.7%
CC(C)(O)[C@@H]1CC[C@@H]([C@H]2[C@H](O)C[C@]3(C)[C@@H]2CC[C@@H]2[C@@]4(C)CC[C@H](O[C@@H]5O[C@H](CO)[C@@H](O)[C@H](O)[C@H]5O[C@@H]5O[C@H](CO)[C@@H](O)[C@H](O)[C@H]5O)C(C)(C)[C@@H]4CC[C@]23C)O1,Activity,[8],69.5%
C[C@@H]1C(=O)O[C@H]2[C@@H]1O[C@]13O[C@@]4(CC[C@]5(C)C(=O)[C@@](C)(O)[C@H]2[C@H]15)C[C@]12OC(=O)C[C@H]1OC(C)(C)[C@@H]2C[C@@H]1O[C@@]14C3=O,Activity,[9],37.6%
C=C(C)[C@@H]1C[C@H](O)C2=C(C(=O)C[C@]3(C)[C@@H]([C@H](C)CCC(=O)OC)CC[C@@]23C)[C@@]1(C)CCC(=O)OC,Activity,[1],16.06 U/L
same,Activity,[2],19.09 U/L
C=C(C)[C@@H]1CC[C@]2(C(=O)O)CC[C@]3(C)[C@H](CC[C@@H]4[C@@]5(C)C[C@@H](O)[C@H](O)[C@](C)(CO)[C@@H]5[C@H](O)C[C@]43C)[C@@H]12,pIC50,"[9]; Mus musculus, Hepatocyte",4.29
CC(C)=CC[C@H](O)[C@@H](C)[C@H]1CC[C@@]2(C)C3=C(CC[C@]12C)[C@@]1(C)CC[C@H](O)C(C)(C)[C@@H]1CC3,Activity,[10],56.3%
C[C@@H]1CC[C@]2(C(=O)O)CC[C@]3(C)C(=CC[C@@H]4[C@@]5(C)C[C@@H](O)[C@H](O)C(C)(C)[C@@H]5CC[C@]43C)[C@@H]2[C@]1(C)O [TOMENTIC ACID],pIC50,[11],5.02
C[C@H]1O[C@@H](O[C@H]2CC[C@@]3(C)[C@@H](CC[C@]4(C)[C@@H]3[C@H](O)C=C3[C@@H]5CC(C)(C)CC[C@]5(CO)[C@@H](O)C[C@]34C)[C@]2(C)CO)[C@H](O)[C@@H](O[C@@H]2O[C@H](CO)[C@@H](O)[C@H](O)[C@H]2O)[C@H]1O,Activity,[7],46.5%
CC(C)=CCC[C@@H](C)[C@H]1CC[C@@]2(C)C3=C(CC[C@]12C)[C@@]1(C)CC[C@H](O)C(C)(C)[C@@H]1CC3 [LANOSTEROL],Activity,[10],74.8%
CC(C)=C(C)[C@H]1C[C@@H]([C@H]2CC[C@@]3(C)C4=C(CC[C@]23C)[C@@]2(C)CC[C@H](O)C(C)(C)[C@@H]2CC4)C(=O)O1,Activity,[10],71.9%
C=C(C)[C@H](O)CC[C@@H](C)[C@H]1CC[C@@]2(C)[C@@H]3CC[C@H]4[C@](C)(C(=O)O)[C@@H](O)C[C@H](O)[C@@]45C[C@@]35CC[C@]12C,pIC50,[3],4.46
CC1(C)CC[C@@]2(C)[C@H](C1)C1=CC[C@@H]3[C@@]4(C)CC[C@@H](O)C(C)(C)[C@@H]4CC[C@@]3(C)[C@]1(C)C[C@@H]2O,Activity,[12],5.3%
CO[C@@H]1C=C2[C@@H]3CC(C)(C)CC[C@]3(CO)[C@@H](O)C[C@@]2(C)[C@]2(C)CC[C@H]3C(C)(C)[C@@H](O[C@@H]4O[C@H](C)[C@H](O)[C@H](O[C@@H]5O[C@H](CO)[C@@H](O)[C@H](O)[C@H]5O)[C@H]4O)CC[C@]3(C)[C@@H]12,Activity,[7],75%
CC1(C)[C@@H](O[C@@H]2O[C@H](C(=O)O)[C@@H](O)[C@H](O)[C@H]2O[C@@H]2O[C@H](C(=O)O)[C@@H](O)[C@H](O)[C@H]2O)CC[C@]2(C)[C@H]3C(=O)C=C4[C@@H]5C[C@](C)(C(=O)O)CC[C@]5(C)CC[C@@]4(C)[C@]3(C)CC[C@@H]12,Activity,[4],253.5 U/L
same,Activity,[5],17.1 U/L
same,pIC50,[6],4.77
CC(C)=CCC[C@@H](C(=O)O)[C@H]1CC[C@@]2(C)C3=C(CC[C@]12C)[C@@]1(C)CC[C@H](O)C(C)(C)[C@@H]1CC3 [TRAMETENOLIC ACID],Activity,[10],75%
CC(C)=CCC[C@](C)(O)[C@H]1CC[C@]2(C)[C@@H]1[C@H](O)C[C@@H]1[C@@]3(C)CC[C@H](O)C(C)(C)[C@@H]3[C@@H](O[C@@H]3O[C@H](CO)[C@@H](O)[C@H](O)[C@H]3O)C[C@]12C [GINSENOSIDE RH1],Activity,[13],72%
same,Activity,[14],90%
same,Activity,[15],93%
CC1=C2C3=CC[C@@H]4[C@@]5(C)C[C@@H](O)[C@H](O)[C@@](C)(CO)[C@@H]5CC[C@@]4(C)[C@]3(C)CC[C@@]2(C(=O)O[C@@H]2O[C@H](CO)[C@@H](O)[C@H](O)[C@H]2O)CC[C@H]1C,pIC50,[16],4.46
CC1(C)[C@@H](O[C@H]2O[C@H](C(=O)O)[C@@H](O)[C@H](O)[C@H]2O[C@@H]2O[C@H](C(=O)O)[C@@H](O)[C@H](O)[C@H]2O)CC[C@]2(C)[C@H]3C(=O)C=C4[C@@H]5C[C@@](C)(C(=O)O)CC[C@]5(C)CC[C@@]4(C)[C@]3(C)CC[C@@H]12 [GLYCYRRHIZIN],Activity,[4],253.5 U/L
same,Activity,[5],17.1 U/L
same,pIC50,[6],5.03
CC(C)[C@]1(CO)CC[C@@H]([C@H]2[C@H](O)C[C@]3(C)[C@@H]2CC[C@@H]2[C@@]4(C)CC[C@H](O[C@@H]5O[C@H](CO)[C@@H](O)[C@H](O)[C@H]5O[C@@H]5O[C@H](CO)[C@@H](O)[C@H](O)[C@H]5O)C(C)(C)[C@@H]4CC[C@]23C)O1,Activity,[8],22.2%
C[C@]1(C(=O)O)CC[C@]2(C)CC[C@]3(C)C(=CC(=O)[C@@H]4[C@@]5(C)CC[C@H](O[C@@H]6O[C@H](C(=O)O)[C@@H](O)[C@H](O)[C@H]6O[C@@H]6O[C@H](C(=O)O)[C@@H](O)[C@H](O)[C@H]6O)[C@](C)(CO)[C@@H]5CC[C@]43C)[C@H]2C1,Activity,[4],253.5 U/L
same,Activity,[5],17.1 U/L
same,pIC50,[6],5.44
C=C(C)C(=O)CC[C@@H](C=O)[C@H]1CC[C@@]2(C)[C@@H]3CC[C@H]4[C@](C)(C(=O)OC)[C@@H](O)C[C@H](O)[C@@]45C[C@@]35CC[C@]12C,pIC50,[3],4.05
CC(C)=CC[C@@H](O)[C@@H](C)[C@H]1CC[C@@]2(C)C3=C(C(=O)C[C@]12C)[C@@]1(C)CC[C@H](O)C(C)(C)[C@@H]1CC3,Activity,[10],81.2%
COC(=O)[C@]1(C)[C@@H](O)C[C@H](O)[C@]23C[C@]24CC[C@]2(C)[C@@H]([C@H](C=O)C/C=C/C(C)(C)O)CC[C@@]2(C)[C@@H]4CC[C@@H]13,pIC50,[3],4.34
CC(C)=CCC[C@](C)(O[C@@H]1O[C@H](CO)[C@@H](O)[C@H](O)[C@H]1O)[C@H]1CC[C@]2(C)[C@@H]1[C@H](O)C[C@@H]1[C@@]3(C)CC[C@H](O)C(C)(C)[C@@H]3[C@@H](O[C@@H]3O[C@H](CO)[C@@H](O)[C@H](O)[C@H]3O)C[C@]12C [GINSENOSIDE RG1],Activity,[14],12%
same,Activity,[15],30%
CC(C)C(O)(CO)CC[C@@H](C)[C@H]1CC[C@@]2(C)[C@@H]3CC[C@H]4[C@H](C(=O)O)[C@@H](O)C[C@H](O)[C@@]45C[C@@]35CC[C@]12C (stereo partly specified),pIC50,[3],4.17
CC1=CC[C@H]([C@@H](C)[C@H]2CC[C@@]3(C)CCC[C@H]4C(C)(C)O[C@@H]5CC(=O)O[C@@]54CC(=O)[C@H](O)C[C@]23C)OC1=O,Activity,[9],37.6%
C[C@H]1O[C@@H](O[C@H]2CC[C@@]3(C)[C@@H](CC[C@]4(C)[C@@H]3C(=O)C=C3[C@@H]5CC(C)(C)CC[C@]5(CO)[C@@H](O)C[C@]34C)[C@]2(C)CO)[C@H](O)[C@@H](O[C@@H]2O[C@H](CO)[C@@H](O)[C@H](O)[C@H]2O)[C@H]1O,Activity,[7],90.9%
C[C@]1(C(=O)O)CC[C@]2(C)CC[C@]3(C)C(=CC(=O)[C@@H]4[C@@]5(C)CC[C@H](O[C@@H]6O[C@H](C(=O)O)[C@@H](O)[C@H](O)[C@H]6O[C@@H]6O[C@H](C(=O)O)[C@@H](O)[C@H](O)[C@H]6O)[C@](C)(CO)[C@@H]5CC[C@]43C)[C@@H]2C1,Activity,[4],253.5 U/L
same,Activity,[5],17.1 U/L
same,pIC50,[6],5.16
